Several values for one entry are separate records, joined by “and”; a condition that tells them apart may be missing. Equal values may be shown once.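 Each compound was tested at five concentrations against cells in 96-well plates for 48 hours. GI50: concentration for 50% inhibition of growth. Definition used: TGI = concentration required for complete inhibition of growth.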 A value given as a limit tells only on which side of the number the result lay.

The first experiment deals with OVCAR-3 ovarian. As to the kind of experiment: NCI-60 cell line screen, 48 h.
With `Fc1ccc2nc(-c3cc(-c4ccc5c(c4)OCO5)n[nH]3)[nH]c2c1`, the GI50 was 3.29 µM and the TGI came out at 18.3 µM.
Take `O=C(c1cccs1)C1NO[N+]([O-])=C1c1cccs1` (configuration not stated): the GI50 is 1.79 µM and the TGI was 3.2 µM.
On to `COc1ccc(C2=C(N3CCc4ccccc43)C(=O)NC2=O)cc1`, for which the GI50 was more than 25 µM and the TGI was more than 25 µM.
With `Cc1cc2c(cc1Cl)S/C(=C/C(=O)O)C(Nc1cccc3nsnc13)=NS2(=O)=O`, the GI50 is 47.5 µM and the TGI is more than 69.8 µM.
Regarding `COc1ccc(F)c(F)c1C(=O)c1cnc(NC2CCN(S(C)(=O)=O)CC2)nc1N`, the GI50 was 0.961 µM and 0.588 µM; the TGI is 5.26 µM and 6.56 µM.
As to `Nc1cc(-c2ccc(Cl)cc2)nn1-c1nnc(/C=C/c2ccco2)c(=O)[nH]1`, the GI50 is 2.16 µM and the TGI stood at 8.45 µM.
As for `Cc1c(C)c(CC(=O)N2CC2)c(C)c(C)c1CC(=O)N1CC1`, the TGI was found to be 51.4 µM.
In the case of `O=C1c2ccccc2-c2c1c1c(NCCCO)nc3ccccc3c1n2Cc1ccccc1`, the GI50 is 19.8 µM and the TGI was determined as 45.9 µM.
For `CCCCCCCCCCCCCCCCCCOCC(COCCOCC[N+]1(CCCCCC(=O)[O-])CCCC1)Oc1ncccn1` (configuration not stated), the TGI is 20.4 µM.
In the case of `CCOc1ccc(Nc2c3ccccc3nc3ccccc23)cc1`, the GI50 was 0.313 µM and 0.264 µM; the TGI was 1.17 µM and 1.03 µM.
In the case of `CCNCCNc1cc(-c2ccc(C#N)cc2)c(C#N)c2nc3ccccc3n12`, the GI50 was 1.66 µM and the TGI came out at 3.09 µM.
`[2H]c1nc(=Nc2cc(NC(=O)C=C)c(N(C)CCN(C)C)cc2OC)[nH]c(-c2cn(C([2H])([2H])[2H])c3ccccc23)c1[2H]`: the GI50 was 1.18 µM and the TGI was 2.83 µM.
For `COc1cc2nc(-c3ccc(C(F)(F)F)cc3)cc(OCCCN3CCCC3)c2cc1OC`, in that order: 4.07 µM and more than 42.2 µM.
With `COc1ccc(C(=O)c2nc3ccccc3n2CC(=O)c2ccc(Cl)cc2)cc1`, the GI50 is 2.55 µM and the TGI was more than 20.4 µM.
Regarding `O=C(NCCN1CCNCC1)c1ccc(Nc2nc3ccccc3c3occc23)cc1`, the GI50 was 14.5 µM and the TGI was determined as 80.1 µM.
For `OCc1ccc(N2CCOCC2)cc1Cl`, in that order: 35.2 µM and more than 92 µM.

The subject of the next experiment is BT-549 breast. As to the kind of experiment: NCI-60 cell line screen, 48 h.
As for `Fc1ccc2nc(-c3cc(-c4ccc5c(c4)OCO5)n[nH]3)[nH]c2c1`, the GI50 is 1.48 µM and the TGI was more than 25.9 µM.
For `O=C(c1cccs1)C1NO[N+]([O-])=C1c1cccs1` (configuration not stated), in that order: 9.41 µM and 21.2 µM.
For `COc1ccc(C2=C(N3CCc4ccccc43)C(=O)NC2=O)cc1`, in that order: 24.2 µM and more than 25 µM.
Compound `Cc1cc2c(cc1Cl)S/C(=C/C(=O)O)C(Nc1cccc3nsnc13)=NS2(=O)=O` returned a TGI of 1.38 µM.
For `COc1ccc(F)c(F)c1C(=O)c1cnc(NC2CCN(S(C)(=O)=O)CC2)nc1N`, the GI50 is 1.52 µM and 1.02 µM; the TGI is 5.86 µM and 5.52 µM.
Take `Nc1cc(-c2ccc(Cl)cc2)nn1-c1nnc(/C=C/c2ccco2)c(=O)[nH]1`: the GI50 was 5.62 µM and the TGI was 55.5 µM.
`Cc1c(C)c(CC(=O)N2CC2)c(C)c(C)c1CC(=O)N1CC1`: the TGI was determined as 51.4 µM.
Turning to `O=C1c2ccccc2-c2c1c1c(NCCCO)nc3ccccc3c1n2Cc1ccccc1`, the GI50 is 21.1 µM and the TGI is 43.7 µM.
As to `CCCCCCCCCCCCCCCCCCOCC(COCCOCC[N+]1(CCCCCC(=O)[O-])CCCC1)Oc1ncccn1` (configuration not stated), the TGI was determined as 21.4 µM.
With `CCOc1ccc(Nc2c3ccccc3nc3ccccc23)cc1`, the GI50 was 0.478 µM and 0.556 µM; the TGI is 9.51 µM and 10.2 µM.
Consider `CCNCCNc1cc(-c2ccc(C#N)cc2)c(C#N)c2nc3ccccc3n12`, for which the GI50 was 1.9 µM and the TGI is 4.91 µM.
For `[2H]c1nc(=Nc2cc(NC(=O)C=C)c(N(C)CCN(C)C)cc2OC)[nH]c(-c2cn(C([2H])([2H])[2H])c3ccccc23)c1[2H]`, in that order: 1.52 µM and 3.25 µM.
For `COc1cc2nc(-c3ccc(C(F)(F)F)cc3)cc(OCCCN3CCCC3)c2cc1OC`, in that order: 0.917 µM and 4.95 µM.
Take `COc1ccc(C(=O)c2nc3ccccc3n2CC(=O)c2ccc(Cl)cc2)cc1`: the GI50 is 4.11 µM and the TGI was more than 100 µM.
For `O=C(NCCN1CCNCC1)c1ccc(Nc2nc3ccccc3c3occc23)cc1`, in that order: 2.72 µM and 18.2 µM.
For `OCc1ccc(N2CCOCC2)cc1Cl`, in that order: more than 100 µM and more than 100 µM.

The test system of a further experiment is K-562 leukemia. As to the kind of experiment: NCI-60 cell line screen, 48 h.
Take `Fc1ccc2nc(-c3cc(-c4ccc5c(c4)OCO5)n[nH]3)[nH]c2c1`: the GI50 is 4.35 µM and the TGI is more than 100 µM.
For `O=C(c1cccs1)C1NO[N+]([O-])=C1c1cccs1` (configuration not stated), in that order: 3.02 µM and more than 100 µM.
For `COc1ccc(C2=C(N3CCc4ccccc43)C(=O)NC2=O)cc1`, in that order: more than 17.4 µM and more than 25 µM.
For the compound `Cc1cc2c(cc1Cl)S/C(=C/C(=O)O)C(Nc1cccc3nsnc13)=NS2(=O)=O`, the GI50 was 70.1 µM and the TGI was more than 100 µM.
`COc1ccc(F)c(F)c1C(=O)c1cnc(NC2CCN(S(C)(=O)=O)CC2)nc1N`: the GI50 is 2.05 µM and 1.95 µM; the TGI was more than 100 µM.
As for `Nc1cc(-c2ccc(Cl)cc2)nn1-c1nnc(/C=C/c2ccco2)c(=O)[nH]1`, the GI50 was 2.98 µM and the TGI is more than 48 µM.
`Cc1c(C)c(CC(=O)N2CC2)c(C)c(C)c1CC(=O)N1CC1`: the TGI was more than 92.7 µM.
